Measured values taken from patent US4180669A, “2-(N-phenethyl-4-piperidino)-5-pentyl resorcinol” (Abbott Laboratories, priority 1978, dated 1979).
Structures can show the parent of a compound that is named as a salt. Where two headings read alike, the source gives them in different places.

Legend:
[1] = test system: pentagastrin stimulated fistula dog; assay: Antisecretory activity in the pentagastrin stimulated fistula dog; type: in vivo, female beagle dogs; settings: pentagastrin 10 μg/kg s.c., 2 hours
Procedure: In addition to the test described in Example XXXVI, some of the present compounds were tested in dogs.
In this test, female beagle dogs weighing 5.5-7.5 kg. were surgically provided with gastric fistulas at the ventral wall of the stomach near the greater curvature and just proximal to the antrum. The animals were allowed to recover for three to four weeks before handling and training were begun, and experiments were started six to eight weeks after surgery. The individually housed dogs were fasted for 20-24 hours before use. Water was allowed ad lib. Treatment selection was determined by a randomized schedule which included control groups given vehicle (0.5% Methocel® solution) only. During the test period each dog was secured in a standing position with one collar around the neck and another around the lower abdomen. Before drug administration, the cannula plug of the gastric fistula was removed and the pH of the gastric juice was checked. Animals with acidic gastric juice (pH 4.0 or less) were replaced with alternate dogs. Then the drug was administered intragastrically […] through a special gastric cannula instillation plug, 30 minutes prior to subcutaneous administration of a gastric stimulant (pentagastrin, 10 μg/kg).
For each dog, collection of gastric juice was begun immediately after administration of the gastric stimulant and continued for two hours. The volumes of collected gastric juices were measured. The acid concentration and pepsin activity were determined for all samples by automated procedures. For the dog data, as recorded in Table 2, below, group means for volume (ml), acid concentration (acidity, mEq/l), pepsin concentration (mg/ml), acid output (mEq/2 hr), and pepsin output (mg/2 hr) were compared with the respective control means using Student's t-test. The results were also expressed as percent inhibition of the respective individual mean control values.
Group means for volume, acid and pepsin concentrations, acid and pepsin outputs were compared for statistically significant differences from control means by Student's t-test.

pylorous ligated rats = assay: Antisecretory activity in the pylorous ligated rat model; type: in vivo, male Sprague-Dawley rats; settings: for inhibition in vivo at 6.3 mg/kg / inhibition in vivo at 12.5 mg/kg / inhibition in vivo at 25 mg/kg / inhibition in vivo at 50 mg/kg / inhibition in vivo at 100 mg/kg: Rattus norvegicus, 4 h; for inhibition in vivo at 6.3 mg/kg: oral dose 6.3 mg/kg
Procedure: To determine the antisecretory activity of the present compounds, the compounds were tested for such activity in pylorous ligated rats. In this test, male Sprague-Dawley rats weighing 170-190 g. were fasted for 24 hours. Water was allowed ad libitum. All groups were comprised of six rats. […] Water was withheld after drug administration. Ligation of the pyrloric sphincter was performed under ether anesthesia, and four hours after ligation the animals were sacrificed with CO2. The stomach was dissected out and the contents were expelled into a graduated centrifuge tube. The samples were centrifuged and the volume, less debris, was measured. Sample aliquots were titrated with 0.05 N NaOH to determine acid concentration. Pepsin activity was determined on an auto analyzer using hemoglobin as the substrate by the method of Anson. Group means for volume, acid and pepsin concentrations, and pepsin outputs were compared for statistically significant differences from control means by Student's t-test.

[2] = oral dose 50 mg/kg, negative sign means stimulated
[3] = oral dose 12.5 mg/kg, read-out: Percent inhibition of acid output
[4] = oral dose 12.5 mg/kg, read-out: Percent inhibition of acidity
[5] = oral dose 12.5 mg/kg, read-out: Percent inhibition of volume
[6] = oral dose 25 mg/kg, read-out: Percent inhibition of acid output
[7] = oral dose 25 mg/kg, read-out: Percent inhibition of acidity
[8] = oral dose 25 mg/kg, read-out: Percent inhibition of volume
[9] = oral dose 50 mg/kg, negative sign means stimulated, read-out: Percent inhibition of pepsin
[10] = oral dose 50 mg/kg, negative sign means stimulated, read-out: Percent inhibition of pepsin output
[11] = oral dose 50 mg/kg, read-out: Percent inhibition of acid output
[12] = oral dose 50 mg/kg, read-out: Percent inhibition of acidity
[13] = oral dose 50 mg/kg, read-out: Percent inhibition of volume
[14] = oral dose 100 mg/kg, read-out: Percent inhibition of acid output
[15] = oral dose 100 mg/kg, read-out: Percent inhibition of acidity
[16] = oral dose 100 mg/kg, read-out: Percent inhibition of volume

2-(1,2,3,4-Tetrahydro-4-pyridyl)-3-methoxy-5-(1,2-dimethylheptyl)phenol hydrochloride [XXVIII]
% Inhibition of acid output ([1]; dose 10 mg/kg): 16.5% | % Inhibition of acidity ([1]; dose 10 mg/kg): 7.7% | % Inhibition of pepsin ([1]; dose 10 mg/kg): 29.7% | % Inhibition of pepsin output ([1]; dose 10 mg/kg): 35.1% | % Inhibition of volume ([1]; dose 10 mg/kg): 9.2% | % Inhibition of acid output ([1]; dose 20 mg/kg): 17.9% | % Inhibition of acidity ([1]; dose 20 mg/kg): 26.2% | % Inhibition of pepsin ([1]; dose 20 mg/kg): 48.0% | % Inhibition of pepsin output ([1]; dose 20 mg/kg): 41.2% | % Inhibition of volume ([1]; dose 20 mg/kg): -12.6% | Percent inhibition of acid output (pylorous ligated rats; oral dose 12.5 mg/kg): 7.5% | Percent inhibition of acidity (pylorous ligated rats; oral dose 12.5 mg/kg): 19.2% | Percent inhibition of pepsin output (pylorous ligated rats; oral dose 12.5 mg/kg): 10.9% | Percent inhibition of volume (pylorous ligated rats; oral dose 12.5 mg/kg): -14.5% | Percent inhibition of pepsin (pylorous ligated rats; oral dose 12.5 mg/kg, negative sign means stimulated): 22.5% | Percent inhibition of acid output (pylorous ligated rats; oral dose 25 mg/kg): 13.1% | Percent inhibition of acidity (pylorous ligated rats; oral dose 25 mg/kg): 27.2% | Percent inhibition of pepsin output (pylorous ligated rats; oral dose 25 mg/kg): 0.8% | Percent inhibition of volume (pylorous ligated rats; oral dose 25 mg/kg): -19.5% | Percent inhibition of pepsin (pylorous ligated rats; oral dose 25 mg/kg, negative sign means stimulated): 17.2% | Percent inhibition of acid output (pylorous ligated rats; oral dose 50 mg/kg): 68.2% | Percent inhibition of acidity (pylorous ligated rats; oral dose 50 mg/kg): 67.1% | Percent inhibition of volume (pylorous ligated rats; oral dose 50 mg/kg): 3.7% | Percent inhibition of pepsin (pylorous ligated rats; [2]): 7.5% | Percent inhibition of pepsin output (pylorous ligated rats; [2]): 9.1% | Percent inhibition of acid output (pylorous ligated rats; oral dose 100 mg/kg): 64.4% | Percent inhibition of acidity (pylorous ligated rats; oral dose 100 mg/kg): 71.7% | Percent inhibition of pepsin output (pylorous ligated rats; oral dose 100 mg/kg): 1.8% | Percent inhibition of volume (pylorous ligated rats; oral dose 100 mg/kg): -23.1% | Percent inhibition of pepsin (pylorous ligated rats; oral dose 100 mg/kg, negative sign means stimulated): 20.9%

CC(C)c1cc(O)c(C2=CCN(C)CC2)c(O)c1.Cl [Example VI, 2-(N-Methyl-1,2,3,6-tetrahydro-4-pyridyl)-5-isopropyl resorcinol hydrochloride]
% Inhibition of acid output ([1]; dose 20 mg/kg): 26.6% | % Inhibition of acidity ([1]; dose 20 mg/kg): 36.6% | % Inhibition of pepsin ([1]; dose 20 mg/kg): 62.7% | % Inhibition of pepsin output ([1]; dose 20 mg/kg): 57.1% | % Inhibition of volume ([1]; dose 20 mg/kg): -17.6% | inhibition in vivo at 6.3 mg/kg (pylorous ligated rats; negative sign means stimulated, read-out: Percent inhibition of pepsin): -13.6% | inhibition in vivo at 6.3 mg/kg (pylorous ligated rats; read-out: Percent inhibition of acid output): 23.4% | inhibition in vivo at 6.3 mg/kg (pylorous ligated rats; read-out: Percent inhibition of acidity): 7% | inhibition in vivo at 6.3 mg/kg (pylorous ligated rats; read-out: Percent inhibition of pepsin output): 7% | inhibition in vivo at 6.3 mg/kg (pylorous ligated rats; read-out: Percent inhibition of volume): 18.9% | inhibition in vivo at 12.5 mg/kg (pylorous ligated rats; oral dose 12.5 mg/kg, negative sign means stimulated, read-out: Percent inhibition of pepsin): -25.3% | inhibition in vivo at 12.5 mg/kg (pylorous ligated rats; [3]): 59.4% | inhibition in vivo at 12.5 mg/kg (pylorous ligated rats; [4]): 21.6% | inhibition in vivo at 12.5 mg/kg (pylorous ligated rats; oral dose 12.5 mg/kg, read-out: Percent inhibition of pepsin output): 41.2% | inhibition in vivo at 12.5 mg/kg (pylorous ligated rats; [5]): 49.8% | inhibition in vivo at 25 mg/kg (pylorous ligated rats; oral dose 25 mg/kg, negative sign means stimulated, read-out: Percent inhibition of pepsin): -22.3% | inhibition in vivo at 25 mg/kg (pylorous ligated rats; [6]): 80.9% | inhibition in vivo at 25 mg/kg (pylorous ligated rats; [7]): 49.9% | inhibition in vivo at 25 mg/kg (pylorous ligated rats; oral dose 25 mg/kg, read-out: Percent inhibition of pepsin output): 60.2% | inhibition in vivo at 25 mg/kg (pylorous ligated rats; [8]): 66.1% | inhibition in vivo at 50 mg/kg (pylorous ligated rats; [9]): -38.6% | inhibition in vivo at 50 mg/kg (pylorous ligated rats; [10]): 54.7% | inhibition in vivo at 50 mg/kg (pylorous ligated rats; [11]): 84.4% | inhibition in vivo at 50 mg/kg (pylorous ligated rats; [12]): 51.7% | inhibition in vivo at 50 mg/kg (pylorous ligated rats; [13]): 67.3% | inhibition in vivo at 100 mg/kg (pylorous ligated rats; oral dose 100 mg/kg, negative sign means stimulated, read-out: Percent inhibition of pepsin): -48.8% | inhibition in vivo at 100 mg/kg (pylorous ligated rats; [14]): 87.7% | inhibition in vivo at 100 mg/kg (pylorous ligated rats; [15]): 62.1% | inhibition in vivo at 100 mg/kg (pylorous ligated rats; oral dose 100 mg/kg, read-out: Percent inhibition of pepsin output): 53.3% | inhibition in vivo at 100 mg/kg (pylorous ligated rats; [16]): 67.5%

CCCCCC(C)C(C)c1cc(O)c(C2=CCN(Cc3ccccc3)CC2)c(O)c1.Cl (stereo not drawn) [Example XIV, 2-(N-Benzyl-1,2,3,6-tetrahydro-4-pyridyl)-5-(1,2-dimethylheptyl) resorcinol hydrochloride]
% Inhibition of acid output ([1]; dose 10 mg/kg): -10.4% | % Inhibition of acidity ([1]; dose 10 mg/kg): 1.2% | % Inhibition of pepsin ([1]; dose 10 mg/kg): -10.0% | % Inhibition of pepsin output ([1]; dose 10 mg/kg): -23.1% | % Inhibition of volume ([1]; dose 10 mg/kg): -12.3% | inhibition in vivo at 12.5 mg/kg (pylorous ligated rats; [3]): -17.3% | inhibition in vivo at 12.5 mg/kg (pylorous ligated rats; [4]): -0.5% | inhibition in vivo at 12.5 mg/kg (pylorous ligated rats; [5]): -5.9% | inhibition in vivo at 25 mg/kg (pylorous ligated rats; [6]): 12.5% | inhibition in vivo at 25 mg/kg (pylorous ligated rats; [7]): 9.2% | inhibition in vivo at 25 mg/kg (pylorous ligated rats; [8]): 4.9% | inhibition in vivo at 50 mg/kg (pylorous ligated rats; [9]): 12.7% | inhibition in vivo at 50 mg/kg (pylorous ligated rats; [10]): 52.4% | inhibition in vivo at 50 mg/kg (pylorous ligated rats; [11]): 57.6% | inhibition in vivo at 50 mg/kg (pylorous ligated rats; [12]): 24.7% | inhibition in vivo at 50 mg/kg (pylorous ligated rats; [13]): 48.9% | inhibition in vivo at 100 mg/kg (pylorous ligated rats; [14]): 79.7% | inhibition in vivo at 100 mg/kg (pylorous ligated rats; [15]): 31.6% | inhibition in vivo at 100 mg/kg (pylorous ligated rats; [16]): 72.1%

CCCCCC(C)C(C)c1cc(O)c(C2CCNCC2)c(O)c1 (stereo not drawn) [Example XVI, 2-(4-Piperidino)-5-(1,2-dimethylheptyl) resorcinol hydrochloride]
% Inhibition of acid output ([1]; dose 10 mg/kg): 20.3% | % Inhibition of acidity ([1]; dose 10 mg/kg): 20.9% | % Inhibition of pepsin ([1]; dose 10 mg/kg): 39.7% | % Inhibition of pepsin output ([1]; dose 10 mg/kg): 39.1% | % Inhibition of volume ([1]; dose 10 mg/kg): -0.2% | inhibition in vivo at 50 mg/kg (pylorous ligated rats; [9]): 45.1% | inhibition in vivo at 50 mg/kg (pylorous ligated rats; [10]): 40.3% | inhibition in vivo at 50 mg/kg (pylorous ligated rats; [11]): 46.6% | inhibition in vivo at 50 mg/kg (pylorous ligated rats; [12]): 50.7% | inhibition in vivo at 50 mg/kg (pylorous ligated rats; [13]): -8.6%

CCCCCc1cc(O)c(C2CCN(C)CC2)c(O)c1 [XVIII, 2-(N-Methyl-4-piperidino)-5-pentyl resorcinol hydrochloride]
inhibition in vivo at 50 mg/kg (pylorous ligated rats; [9]): 5.6% | inhibition in vivo at 50 mg/kg (pylorous ligated rats; [10]): 1.4% | inhibition in vivo at 50 mg/kg (pylorous ligated rats; [11]): 4.5% | inhibition in vivo at 50 mg/kg (pylorous ligated rats; [12]): 8.2% | inhibition in vivo at 50 mg/kg (pylorous ligated rats; [13]): -5.2%

CCCCCc1cc(O)c(C2CC3CCC(C2)N3C)c(O)c1 (stereo not drawn) [XXIV, 2-(N-Methyl-2,6-ethylidene-4-piperidino)-5-pentyl resorcinol hydrochloride]
inhibition in vivo at 50 mg/kg (pylorous ligated rats; [9]): 21% | inhibition in vivo at 50 mg/kg (pylorous ligated rats; [10]): 22.2% | inhibition in vivo at 50 mg/kg (pylorous ligated rats; [11]): 0.9% | inhibition in vivo at 50 mg/kg (pylorous ligated rats; [12]): -2.5% | inhibition in vivo at 50 mg/kg (pylorous ligated rats; [13]): 2.8%
